This assay has as its target T1, Mannose-6-phosphate isomerase (Homo sapiens, UniProt P34949).
T1 sequence (P34949 whole entry): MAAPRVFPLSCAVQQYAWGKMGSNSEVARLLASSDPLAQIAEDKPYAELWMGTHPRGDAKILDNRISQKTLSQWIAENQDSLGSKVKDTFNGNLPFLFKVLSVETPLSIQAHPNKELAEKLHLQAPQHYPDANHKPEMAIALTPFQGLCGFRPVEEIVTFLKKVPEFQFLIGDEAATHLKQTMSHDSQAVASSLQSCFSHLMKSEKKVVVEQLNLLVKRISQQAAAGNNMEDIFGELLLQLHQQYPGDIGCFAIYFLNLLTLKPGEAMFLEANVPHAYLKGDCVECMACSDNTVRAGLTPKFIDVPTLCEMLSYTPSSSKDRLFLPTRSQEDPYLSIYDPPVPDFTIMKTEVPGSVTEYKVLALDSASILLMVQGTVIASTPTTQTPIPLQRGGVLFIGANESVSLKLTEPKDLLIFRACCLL
The experiment in a line: human PMI inhibitors, high substrate, primary screen, biochemical, fluorescence intensity, high mannose 6-phosphate (AID 1220).

The results in this text go back to ChEMBL document CHEMBL1201862, “PubChem BioAssay data set” (2004).

Where only a bound is given, the exact number is not on record here.

Take `COc1ccc(/C=N/Nc2cc(N(C)C)nc(N(C)C)n2)cc1`: the IC50 is listed as > 50 µM (not active).
